In article PMC6155296, “Screening of Peruvian Medicinal Plants for Tyrosinase Inhibitory Properties: Identification of Tyrosinase Inhibitors in Hypericum laricifolium Juss” (Molecules : A Journal of Synthetic Chemistry and Natural …, 2017):
Read-outs that look alike come from different tables or passages of the source.

Key:
Mushroom tyrosinase [1] = biological target: T1, Mushroom tyrosinase (Agaricus bisporus, UniProt C7FF04); experiment: Tyrosinase assay (spectrophotometry, L-tyrosine substrate); assay type: biochemical
Protocol: Tyrosinase activity was determined by spectrophotometry, with minor modifications. First, 80 μL of 0.1 M potassium phosphate buffer (pH 6.6), 20 μL of sample dissolved in dimethyl sulfoxide at the concentrations needed (final concentrations 100–500 μg/mL), and 50 μL of L-tyrosine buffer (1.5 mM) solutions were mixed. Then, 50 μL of mushroom tyrosinase solution (200 unit/mL in phosphate buffer) was added to each mixture, which was then incubated at 25 °C for 15 min.
The results were expressed as mean ± standard deviation (SD), and were repeated three to five times. The inhibitory concentration (IC50) was calculated by log-Probit analysis.

Mushroom tyrosinase [2] = biological target: T1, Mushroom tyrosinase; experiment: as above; assay type: biochemical; remark: listed apart in the source
cyclooxygenase-1 (COX-1) = tested on: cyclooxygenase-1 (COX-1); set-up: method as in PMID 14646327; conditions: in vitro; cited from earlier work

T1 sequence (C7FF04 2-392): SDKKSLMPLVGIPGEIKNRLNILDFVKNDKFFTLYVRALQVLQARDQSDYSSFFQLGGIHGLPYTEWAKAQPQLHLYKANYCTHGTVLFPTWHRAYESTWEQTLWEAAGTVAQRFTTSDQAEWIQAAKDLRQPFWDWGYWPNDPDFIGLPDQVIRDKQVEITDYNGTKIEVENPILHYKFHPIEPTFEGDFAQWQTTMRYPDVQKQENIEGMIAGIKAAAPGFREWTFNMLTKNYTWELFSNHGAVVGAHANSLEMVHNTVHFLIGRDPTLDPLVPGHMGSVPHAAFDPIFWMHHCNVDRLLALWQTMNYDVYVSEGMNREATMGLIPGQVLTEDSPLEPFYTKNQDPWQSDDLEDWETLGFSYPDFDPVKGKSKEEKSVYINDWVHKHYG
T1 sequence (G1K3P4 1-150 partner): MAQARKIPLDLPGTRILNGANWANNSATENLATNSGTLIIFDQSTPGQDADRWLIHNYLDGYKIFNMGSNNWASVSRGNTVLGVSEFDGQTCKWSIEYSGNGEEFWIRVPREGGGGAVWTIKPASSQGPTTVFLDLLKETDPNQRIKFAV

Q: Which results are given for `OC[C@H]1O[C@@H](Oc2ccc(O)cc2)[C@H](O)[C@@H](O)[C@@H]1O` [Arbutin, arbutin, reference compound]?
A: inhibition at 100 µg/mL (Mushroom tyrosinase [1]): 86 ± 1.6%; inhibition at 500 µg/mL (Mushroom tyrosinase [1]): 98.2 ± 0.9%; inhibition at 500 µg/mL (Mushroom tyrosinase [1]; read-out: Inhibition % (500 μg/mL)): 92.3 ± 2.2%; inhibition at 10 µg/mL (Mushroom tyrosinase [2]): 13.7 ± 1.8%; inhibition at 50 µg/mL (Mushroom tyrosinase [2]): 63.8 ± 0.1%

Q: With `O=C(O)/C=C/c1ccc(O)c(O)c1` [Caffeic acid (5), caffeic acid] as the compound, how does the inhibition at 100 µg/mL (Mushroom tyrosinase [1]; 100 μg/mL, Table 4, read-out: Inhibition (%)) read?
A: < 1%

Q: For `O=C(/C=C/c1ccc(O)c(O)c1)O[C@@H]1C[C@](O)(C(=O)O)C[C@@H](O)[C@H]1O` [Chlorogenic acid (3), chlorogenic acid], which inhibition at 100 µg/mL (Mushroom tyrosinase [1]) is on record?
A: < 1%

Q: For `O=C(O)[C@H]1O[C@@H](Oc2c(-c3ccc(O)cc3)oc3cc(O)cc(O)c3c2=O)[C@H](O)[C@@H](O)[C@@H]1O` [Kaempferol 3-O-glucuronide (6), kaempferol 3-O-glucuronide], which inhibition at 100 µg/mL (Mushroom tyrosinase [1]) is on record?
A: < 1%

Q: Which inhibition at 100 µg/mL (Mushroom tyrosinase [1]) does the source give for `O=c1c(O)c(-c2ccc(O)cc2)oc2cc(O)cc(O)c12` [Kaempferol (8), kaempferol] here?
A: 30 ± 1.97%

Q: For `O=C(O)c1ccc(O)c(O)c1` [Protocatechuic acid (1), protocatechuic acid], which inhibition at 100 µg/mL (Mushroom tyrosinase [1]) is on record?
A: < 1%

Q: Which “Inhibition (%)” value (Mushroom tyrosinase [1]; 100 μg/mL, Table 4) does the source give for `O=c1c(O)c(-c2ccc(O)c(O)c2)oc2cc(O)cc(O)c12` [Quercetin (7), quercetin] here?
A: 99.7 ± 0.28%

Q: And the “Inhibition (%)” value (Mushroom tyrosinase [1]; 100 μg/mL, Table 4, listed as quercetin)?
A: over 95%

Q: What about the “inhibition of cyclooxygenase-1 (COX-1)” value (cyclooxygenase-1 (COX-1)) of the same compound?
A: 52% ± 2

Q: With `COc1cc(C(=O)O)ccc1O` [Vanilic acid (4), vanillic acid] as the compound, how does the inhibition at 100 µg/mL (Mushroom tyrosinase [1]) read?
A: < 1%

Q: With `O=C(O)c1ccc(O)cc1` [p-Hydroxybenzoic acid (2), p-hydroxybenzoic acid] as the compound, how does the inhibition at 100 µg/mL (Mushroom tyrosinase [1]) read?
A: 8.3 ± 4.03%
